# Data from the Kinase Knowledgebase extract (Sharma et al. 2016).
# pIC50: −log10 of the molar value.
# Molecular target: MAPK14 (human) (UniProt Q16539)
# Assay: Inhibition of MAPK14 Kinase Activity
# Chain of MAPK14 (human) (Q16539 whole entry, looked up): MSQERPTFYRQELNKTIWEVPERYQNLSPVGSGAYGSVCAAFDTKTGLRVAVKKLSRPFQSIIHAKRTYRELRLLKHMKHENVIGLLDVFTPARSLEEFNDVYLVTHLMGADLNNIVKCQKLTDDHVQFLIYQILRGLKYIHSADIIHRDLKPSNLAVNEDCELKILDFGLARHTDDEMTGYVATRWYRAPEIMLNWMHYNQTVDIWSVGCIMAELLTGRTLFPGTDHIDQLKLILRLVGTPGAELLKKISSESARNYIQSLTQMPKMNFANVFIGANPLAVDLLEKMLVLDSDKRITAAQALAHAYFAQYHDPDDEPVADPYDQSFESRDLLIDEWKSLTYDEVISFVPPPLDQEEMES
row,Structure (SMILES),pIC50
1,CCC(C)NC(=O)c1ccc(C)c(-n2ccnc(NCc3ccc(N4CCN(C)CC4)cc3)c2=O)c1 (centres undefined),6.00
2,Cc1ccc(C(=O)NC2CC2)cc1-n1ccnc(N[C@H](CC(=O)OC(C)(C)C)c2ccccc2)c1=O,7.70
3,Cc1ccc(C(=O)NC2CC2)cc1-n1ccnc(NCc2cccc(CNC(=O)OC(C)(C)C)c2)c1=O,7.50
4,CCC(CC)(Nc1nccn(-c2cc(C(=O)NC3CC3)ccc2C)c1=O)c1ccccc1OCCNC,9.40
5,CCN(CC)CCOc1ccccc1C(C)(C)Nc1nccn(-c2cc(C(=O)NC3CC3)ccc2C)c1=O,9.20
6,Cc1ccc(C(=O)NC2CC2)cc1-n1ccnc(NC(CC(=O)NC2CC2)c2ccccc2)c1=O (centres undefined),7.50
7,CNCCCOc1ccccc1[C@H]1CCCN1c1nccn(-c2cc(C(=O)NC3CC3)ccc2C)c1=O,8.90
8,CNCCCOc1ccccc1[C@@H]1CCCN1c1nccn(-c2cc(C(=O)NC3CC3)ccc2C)c1=O,7.60
9,Cc1ccc(C(=O)NC2CC2)cc1-n1ccnc(N[C@@H](c2ccccc2)[C@@H](C)CN2CCCN(C)CC2)c1=O,9.00

# Further compounds by rising pIC50, results first:
row,pIC50,Structure (SMILES)
1,6.30,Cc1ccc(C(=O)NC2CC2)cc1-n1ccnc(NCc2ccc(CNC(=O)OC(C)(C)C)cc2)c1=O
2,6.60,Cc1ccc(C(=O)NC2CC2)cc1-n1ccnc(NC(c2ccccc2)C2CCN(C)CC2)c1=O (centres undefined)
3,6.90,Cc1ccc(C(=O)NC2CC2)cc1-n1ccnc(NCC2Cc3ccccc3CN2)c1=O (centres undefined)
4,7.60,Cc1ccc(C(=O)NC2CC2)cc1-n1ccnc(N[C@H](CC(=O)N2CCN(C)CC2)c2ccccc2)c1=O
5,9.20,Cc1ccc(C(=O)NC2CC2)cc1-n1ccnc(N[C@@H](c2ccccc2)[C@@H](C)CN2CCC(C(N)=O)CC2)c1=O
